Laboratory results taken from patent publication US9023788B2, “Methods compounds and pharmaceutical compositions for treating anxiety and mood disorders” (New York University, priority 2010, dated 2015).

How the values were obtained:
Swiss Webster male mice [1] = assay: Acute forced swim test (Porsolt); type: in vivo, mouse; settings: second swim; 6FNE ivt. peak dose 3 nmoles; DMI subacute i.p. 10 mg/kg
Swiss Webster male mice [2] = assay: Tail suspension test; type: in vivo, mouse; settings: DMI subacute i.p. 10 mg/kg
Swiss Webster male mice [3] = assay: LPS model of depression (anhedonia); type: in vivo, mouse; settings: subacute i.p. DMI
Description: 1LPS model of depression (anhedonia): A modification of the Frenois et al (2007) model of LPS-induced anhedonia in the mouse was used to obtain a non-motoric index of depressed behavior. In this model, trained mice show a marked decrease in preference for a sweet solution 24-48 h after a systemic dose of LPS (830 μg/kg, i.p.), a time when they have recovered from the sickness behavior and anorexia caused by the acute effects of the toxin. For the model, the animals were first implanted with 4th ventricular cannulas as above and, during the recovery period, trained to drink diluted sweetened condensed milk solution (Magnolia 1:3 v:v milk:tap water) by 15 min presentations every other day for 7-10 d. […] Animals given i.p. injections were dosed 14, 12 and 0.5 h prior to the last test.

Swiss Webster male mice [4] = assay: Repeated open space forced swim (RFS) test; settings: for immobility or distance swum versus vehicle, panel of currently available antidepressants: single acute i.p. dose 15 min prior, FIG. 14
LC α1-adrenoceptors [5] = assay: Novel cage test after LC microinjection; type: in vivo, rat
brain α-adrenoceptors = settings: cited from earlier work
LC α1-adrenoceptors [6] = assay: Home cage test after LC microinjection; type: in vivo, rat
Description: The animal was brought into the laboratory in its home cage and habituated in this cage beneath the video camera for 3 h prior to being injected. […] Food and water remained on the cage during the test. The longer interval (30 min) was used in the home vs. novel cage test because a low baseline activity was desired, and it was necessary to allow time for the disturbance caused by handling the animal to subside. As in the novel cage test, the home cage tests were repeated for a total of 2-3 tests at weekly intervals with different doses of the agonist. All experiments were carried out between 1100 and 1400 h. Following the last behavioral test, the animals were anesthetized with Nembutal and infused bilaterally with 250 nl of 2% methylene blue. Frozen (unfixed) brain sections were stained with cresyl violet for histological localization of cannula placement.
Videotapes were rated blind for gross movements (GMs), crosses of the cage midline (cage Xs), rearing responses, and time immobile (TI) by a trained observer. […] This included walks to a wall, rears, turns in place, and stretch and attend responses.
Animals showing significant dye penetration of the 4th ventricle were excluded from the study. Comparisons between two drug conditions in the novel cage experiment were evaluated by Bonferronicorrected dependent t-tests.

rats = settings: cited from earlier work; for antidepressant effect after intracerebral administration: intracerebral infusion/injection
[7] = in vivo; cited from earlier work
Swiss Webster male mice [8] = assay: Open field motor activity and anxiety (i.p. dp6FNE/prazosin); type: in vivo, mouse; settings: 1 h; dp6FNE 0.1-3 mg/kg/prazosin; amphetamine 2 mg/kg i.p.
Description: For purposes of comparison, some animals received instead d-amphetamine, 2 mg/kg, i.p. Total quadrants entered and time in the center area of the field as a ratio to the total distance traveled were rated from videorecordings.

[9] = 5th swim, acute ivt. 6FNE or DEX, DMI subacute i.p. 10 mg/kg
[10] = dpEPI 1 mg/kg i.p. in vehicle with prazosin 0.2 mg/kg + propranolol 0.5 mg/kg, 15 min prior

## CNCCCN1c2ccccc2CCc2ccccc21 [DMI, desmethylimipramine]
Swiss Webster male mice [1]
  immobility versus vehicle: significant reduction in immobility
Swiss Webster male mice [2]; 6FNE ivt. 3 nmoles
  immobility, % vehicle control: 64.7±20.7%
Swiss Webster male mice [2]; acute ivt. 6FNE or DEX
  immobility versus vehicle: significantly reduced immobility
Swiss Webster male mice [3]
  anorexia / sucrose intake after subacute antidepressant: anorexia and markedly reduced sucrose intakes
Swiss Webster male mice [4]; 5th swim, 6FNE ivt. peak dose, DMI subacute i.p. 10 mg/kg
  immobility, % vehicle control: 94.8±7.1%
Swiss Webster male mice [4]; [9]
  distance swum versus vehicle: failed to affect immobility or distance swum
  immobility versus vehicle: failed to affect immobility or distance swum
Swiss Webster male mice [4]; acute i.p., dp6FNE 1, 3, 10 mg/kg with prazosin 0.2 mg/kg, DMI 10 mg/kg, FIG. 5
  effect in repeated open-space swim test: complete lack of effect
Swiss Webster male mice [4]
  immobility or distance swum versus vehicle, panel of currently available antidepressants: dp6FNE/prazosin (1 mg/kg) was the only agent that either significantly reduced immobility

## CCN(CCCl)Cc1ccccc1Br [DSP4]
LC α1-adrenoceptors [5]; DSP4 10 days before test
  effect of pretreatment on behavioral effects of LC terazosin (novel cage) and PE (home cage): markedly attenuated the behavioral effects
LC α1-adrenoceptors [5]; DSP4 10 days before test, novel or home cages
  effect of pretreatment alone on exploratory activity: had no effect on exploratory activity

## CNC[C@H](O)c1ccc(O)c(O)c1 [EPI, epinephrine]
Brain α-adrenoceptors
  agonist efficacy: full agonist

## CNC[C@H](O)c1cccc(O)c1 [PE, phenylephrine]
LC α1-adrenoceptors [5]; PE 10 nmoles/side coinjected with terazosin 3 nmoles/side in LC, 5 rats
  reversal of terazosin-induced inactivity (GMs, cage Xs, TI): completely reverse the terazosin-induced inactivity
LC α1-adrenoceptors [6]; PE 0, 0.03, 0.1, 0.3, 1 nmole/side in LC, 30 min
  GMs and cage Xs, dose-response: small dose-dependent increases
LC α1-adrenoceptors [6]; PE 1.0 nmole/side in LC, home cage, 0-15 min
  TI: 0.98 ± 0.98 min
LC α1-adrenoceptors [6]; PE 1.0 nmole/side in LC, home cage, 0-15 min, five rats
  GMS: 195.2 ± 25.3
LC α1-adrenoceptors [6]; Rears as % of GM, PE 1.0 nmole/side in LC, home cage, 0-15 min
  % Rears: 33.5 ± 8.0%
LC α1-adrenoceptors [6]; Xs as % of GM, PE 1.0 nmole/side in LC, home cage, 0-15 min
  % Xs: 12.3 ± 2.0%
rats; 16 mg/kg, i.p.
  anti-immobility effect after systemic administration: only at a near lethal dose
rats
  antidepressant effect after intracerebral administration: produced antidepressant effects in the forced swim test

## Cc1ccc(N(CC2=NCCN2)c2cccc(O)c2)cc1 [Phentolamine, phentolamine]
[7]
  passage of the blood brain barrier / uptake by the brain: not taken up by the brain

## C[C@H](N)Cc1ccccc1 [amphetamine, d-amphetamine]
Swiss Webster male mice [8]
  motor activity (quadrants entered): highly significant increase on locomotion
  relative time in the center of the field: significantly tended to reduce it

## CC(NC(C)(C)C)C(=O)c1cccc(Cl)c1 (stereo not drawn) [bupropion]
Swiss Webster male mice [4]
  immobility or distance swum versus vehicle, panel of currently available antidepressants: dp6FNE/prazosin (1 mg/kg) was the only agent that either significantly reduced immobility

## Clc1cccc(Cl)c1N=C1NCCN1 [clonidine]
rats
  antidepressant effect after intracerebral administration: rapid antidepressant effects
Swiss Webster male mice [4]
  immobility or distance swum versus vehicle, panel of currently available antidepressants: dp6FNE/prazosin (1 mg/kg) was the only agent that either significantly reduced immobility

## CNCC(O)c1ccc(OC(=O)C(C)(C)C)c(OC(=O)C(C)(C)C)c1 (stereo not drawn) [dpEPI, dipivalyl-epinephrine]
Swiss Webster male mice [4]; [10]
  distance swum versus vehicle: increase in distance swum
  immobility versus vehicle: significant reduction in immobility

## CNCCC(Oc1ccc(C(F)(F)F)cc1)c1ccccc1 (stereo not drawn) [fluoxetine]
Swiss Webster male mice [4]
  immobility or distance swum versus vehicle, panel of currently available antidepressants: dp6FNE/prazosin (1 mg/kg) was the only agent that either significantly reduced immobility

## CNC1(c2ccccc2Cl)CCCCC1=O (stereo not drawn) [ketamine]
Swiss Webster male mice [4]
  immobility or distance swum versus vehicle, panel of currently available antidepressants: dp6FNE/prazosin (1 mg/kg) was the only agent that either significantly reduced immobility
